Measured values: paper PMC3430861, “The pharmacological profile of ELIC, a prokaryotic GABA-gated receptor” (Neuropharmacology, 2012)
Read-outs that look alike come from different tables or passages of the source.

What was measured:
GLIC = tested on: GLIC; parameters: method as in Alqazzaz et al., 2011; details: comparison ELIC vs GLIC; ref Alqazzaz et al., 2011; cited from earlier work
ELIC [1] = target: T1, ELIC (Dickeya chrysanthemi, UniProt P0C7B7); experiment: cell-based; format: cell-based, Erwinia chrysanthemi
T1 sequence (P0C7B7 8-321): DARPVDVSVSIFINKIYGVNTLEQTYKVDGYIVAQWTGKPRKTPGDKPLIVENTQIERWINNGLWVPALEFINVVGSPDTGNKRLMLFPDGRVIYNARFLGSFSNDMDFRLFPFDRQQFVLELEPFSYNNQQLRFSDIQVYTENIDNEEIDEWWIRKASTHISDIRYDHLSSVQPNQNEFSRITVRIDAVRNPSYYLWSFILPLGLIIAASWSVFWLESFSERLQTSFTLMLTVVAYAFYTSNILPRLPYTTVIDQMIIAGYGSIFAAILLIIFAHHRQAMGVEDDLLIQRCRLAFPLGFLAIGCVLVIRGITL
Description: Xenopus laevis oocyte-positive females were purchased from NASCO (Fort Atkinson, Wisconsin, USA) and maintained according to standard methods. Harvested stage V–VI Xenopus oocytes were washed in four changes of ND96 (96 mM NaCl, 2 mM KCl, 1 mM MgCl2, 5 mM HEPES, pH 7.5), de-folliculated in 1.5 mg ml^−1 collagenase Type 1A for approximately 2 h, washed again in four changes of ND96 and stored in ND96 containing 2.5 mM sodium pyruvate, […], 0.7 mM theophylline.
(§1) The ELIC sequence (Genbank accession number POC7B7) was purchased from Genscript as a synthetic gene with optimized codon usage for expression in Escherichia coli. […] Stage V and VI oocytes were injected with 20 ng cRNA, and currents recorded 1–3 days post-injection.

ELIC [2] = target: T1, ELIC; experiment: Inhibition of cysteamine-induced ELIC responses; format: cell-based, Erwinia chrysanthemi; details: data not shown
ELIC [3] = target: T2, ELIC (Dickeya chrysanthemi, UniProt P0C7B7, INS163G); experiment: cell-based; format: cell-based, Erwinia chrysanthemi
T2 construct: expressed in transfected cells; host or cells: Xenopus laevis oocytes injected with cRNA
Description: Xenopus laevis oocyte-positive females were purchased from NASCO (Fort Atkinson, Wisconsin, USA) and maintained according to standard methods.
as §1

[4] = tested on: RDL, a GABA-activated insect receptor; parameters: method as in McGonigle and Lummis, 2010; details: ref McGonigle and Lummis, 2010; cited from earlier work

Row | SMILES | inhibition of GLIC (yes/no) (GLIC) | nH (ELIC [1]; Hill coefficient of inhibition curve) | IC50 (ELIC [1]; IC50, wild type ELIC, at the GABA EC50 (1.6 mM)) | inhibition of ELIC (yes/no) (ELIC [1]; comparison ELIC vs GLIC) | IC50 (ELIC [1]; pIC50 (Mean ± SEM), wild type ELIC, at the GABA EC50 (1.6 mM)) | inhibition of cysteamine-induced responses compared to inhibition of GABA-induced responses (ELIC [2]) | inhibition of ELIC (yes/no) (ELIC [1]) | nH (ELIC [1]) | IC50 (ELIC [1]; IC50) | IC50 (ELIC [1]; pIC50 (Mean ± SEM)) | concentration required to activate ELIC (ELIC [3]) | % of Rmax at 100 mM (ELIC [3]; 100 mM, Rmax = maximal current relative to 10mM GABA) | effect on RDL [4]
1 | C=C(C)[C@@H]1[C@H]2OC(=O)[C@@H]1[C@]1(O)C[C@H]3O[C@]34C(=O)O[C@H]2[C@]14C [Picrotoxinin] | inhibiting both receptors | 1.2 ± 0.6 | 96 µM | inhibiting both receptors | 87.1 µM | no significant differences |  |  |  |  |  |  | 
2 | CC(N)C12CC3CC(CC(C3)C1)C2 (stereo not drawn) [Rimantadine] | inhibiting both receptors |  |  |  |  | no significant differences | inhibiting both receptors | 1.0 ± 0.2 | 54 µM | 53.7 µM |  |  | 
3 | O=C(O)CCCO [γ-hydroxybutyric acid] |  |  |  |  |  |  |  |  |  |  | > 10 mM | 8.2 ± 3% of Rmax at 100 mM | no effect
